Laboratory results published in patent publication US11021493B2, “1,4-thiazine dioxide and 1,2,4-thiadiazine dioxide derivatives as beta-secretase inhibitors and methods of use” (AMGEN INC., priority 2016, dated 2021).

Key:
BACE1 [1] = molecular target: T1, BACE1 (Homo sapiens (Human), UniProt P56817); assay: In vitro enzymatic BACE1 FRET assay; format: biochemical; conditions: read-out: BACE1 Enzyme IC50
Target sequence in this assay (P56817 46-501): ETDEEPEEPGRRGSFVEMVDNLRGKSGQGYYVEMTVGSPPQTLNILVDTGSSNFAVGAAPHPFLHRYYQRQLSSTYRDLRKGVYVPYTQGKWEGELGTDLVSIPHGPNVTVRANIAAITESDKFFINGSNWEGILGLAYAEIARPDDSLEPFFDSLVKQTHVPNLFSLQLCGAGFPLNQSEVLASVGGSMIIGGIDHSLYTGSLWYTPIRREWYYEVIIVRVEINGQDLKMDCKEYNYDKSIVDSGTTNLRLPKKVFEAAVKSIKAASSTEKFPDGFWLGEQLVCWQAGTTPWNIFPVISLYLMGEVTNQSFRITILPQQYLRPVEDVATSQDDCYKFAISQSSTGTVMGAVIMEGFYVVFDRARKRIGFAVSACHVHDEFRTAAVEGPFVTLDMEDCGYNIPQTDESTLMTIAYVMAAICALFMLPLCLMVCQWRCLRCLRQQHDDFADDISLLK

human recombinant BACE2 = human recombinant BACE2 (Homo sapiens (Human), UniProt Q9Y5Z0); assay: In vitro enzymatic BACE2 FRET assay; format: biochemical; conditions: read-out: BACE2 Enzyme IC50
Chain of human recombinant BACE2 (Q9Y5Z0 63-518): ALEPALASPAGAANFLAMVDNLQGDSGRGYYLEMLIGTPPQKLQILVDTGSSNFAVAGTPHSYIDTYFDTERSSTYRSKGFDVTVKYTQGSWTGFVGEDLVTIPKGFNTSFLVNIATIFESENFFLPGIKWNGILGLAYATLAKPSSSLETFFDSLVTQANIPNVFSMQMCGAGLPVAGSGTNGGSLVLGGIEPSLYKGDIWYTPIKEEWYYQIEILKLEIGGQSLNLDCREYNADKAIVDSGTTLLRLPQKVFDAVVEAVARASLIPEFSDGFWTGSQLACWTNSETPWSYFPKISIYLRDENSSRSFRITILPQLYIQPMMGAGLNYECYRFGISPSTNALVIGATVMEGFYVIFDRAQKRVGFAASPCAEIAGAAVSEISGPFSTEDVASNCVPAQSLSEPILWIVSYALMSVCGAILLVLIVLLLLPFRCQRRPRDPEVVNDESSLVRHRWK

Cathepsin D (CatD) = Cathepsin D (CatD) (Homo sapiens (Human), UniProt P07339); assay: In vitro enzymatic Cathepsin D (CatD) FRET assay; format: biochemical; conditions: read-out: Cat D Enzyme IC50
Chain of Cathepsin D (CatD) (P07339 65-412, species assumed): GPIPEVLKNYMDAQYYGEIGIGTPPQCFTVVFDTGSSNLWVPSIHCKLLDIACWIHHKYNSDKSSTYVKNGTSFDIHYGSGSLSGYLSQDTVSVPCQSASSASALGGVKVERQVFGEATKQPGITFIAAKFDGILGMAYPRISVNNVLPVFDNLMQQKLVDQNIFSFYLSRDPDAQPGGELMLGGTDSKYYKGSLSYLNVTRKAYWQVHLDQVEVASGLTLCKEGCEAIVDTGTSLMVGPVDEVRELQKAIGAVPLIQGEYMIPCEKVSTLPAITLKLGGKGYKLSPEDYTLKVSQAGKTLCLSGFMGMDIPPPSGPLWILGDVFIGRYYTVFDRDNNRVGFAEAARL

BACE1 [2] = molecular target: T1, BACE1; assay: In vitro BACE1 cell-based assay (Aβ40 in conditioned medium of cells stably expressing APP, HTRF); conditions: Aβ40 in conditioned media after 24 h incubation
Target sequence in this assay (P56817 46-501, species assumed): as the sequence (P56817 46-501) above

Row | SMILES | IC50 (BACE1 [1]) [µM] | IC50 (human recombinant BACE2) [µM] | IC50 (Cathepsin D (CatD)) [µM] | IC50 (BACE1 [2]) [µM]
1 | Cc1cnc(COc2cnc(/C(F)=C/c3ccc(F)c([C@@]4(C)N=C(N)N(C)S(=O)(=O)C45CC5)c3)cn2)o1 [Example 169, (8R)-8-(2-fluoro-5-((Z)-2-fluoro-2-(5-((5-methyl-1,3-oxazol-2-yl)methoxy)-2-pyrazinyl)ethenyl)phenyl)-5,8-dimethyl-4-thia-5,7-diazaspiro[2.5]oct-6-en-6-amine 4,4-dioxide] | 0.066 | 0.907 | 698 | 0.124
2 | CC1(C)C(N)=N[C@](C)(c2cc(/C=C(\F)c3cnc(OCC(F)(F)C(F)F)cn3)ccc2F)CS1(=O)=O [Example 141, (R,Z)-5-amino-3-(2-fluoro-5-(2-fluoro-2-(5-(2,2,3,3-tetrafluoropropoxy)pyrazin-2-yl)vinyl)phenyl)-3,6,6-trimethyl-3,6-dihydro-2H-1,4-thiazine 1,1-dioxide] | 0.055 | 0.33 | 96.2 | 0.229
3 | CN1C(N)=N[C@](C)(c2cc(/C=C(\F)c3cc(C#N)c(Cl)cn3)ccc2F)CS1(=O)=O [Example 231, (R,Z)-2-(2-(3-(3-amino-2,5-dimethyl-1,1-dioxido-5,6-dihydro-2H-1,2,4-thiadiazin-5-yl)-4-fluorophenyl)-1-fluorovinyl)-5-chloroisonicotinonitrile] | 0.084 | 0.094 | > 4.94 | 0.097
4 | CCC#C[C@@H](C)Oc1cnc(/C(F)=C/c2ccc(F)c([C@]3(C)CS(=O)(=O)C(C)(C)C(N)=N3)c2)cn1 (single isomer, unassigned) [Example 216] | 0.628 | 0.364 | 29.9 | 5.36
5 | CN1C(N)=N[C@](C)(c2cc(/C=C(\F)C3CCOCC3)cc(F)c2F)CS1(=O)=O [Example 110, (R,Z)-3-amino-5-(2,3-difluoro-5-(2-fluoro-2-(tetrahydro-2H-pyran-4-yl)vinyl)phenyl)-2,5-dimethyl-5,6-dihydro-2H-1,2,4-thiadiazine 1,1-dioxide] | 0.709 | 0.963 | 194 | 0.631
6 | C[C@]1(c2cc(/C=C(\F)c3cnc(OCC(F)(F)C(F)F)cn3)ccc2F)N=C(N)[C@@]2(CF)CC[C@@H]1S2(=O)=O [Example 120, (1R,4R,5S)-2-amino-4-(2-fluoro-5-((Z)-2-fluoro-2-(5-(2,2,3,3-tetrafluoropropoxy)pyrazin-2-yl)vinyl)phenyl)-1-(fluoromethyl)-4-methyl-8-thia-3-azabicyclo[3.2.1]oct-2-ene 8,8-dioxide] | 0.037 | 0.258 | > 400 | 0.542
7 | CC1(C)C(N)=N[C@](C)(c2cc(/C=C(\F)c3ccc(Cl)cn3)ccc2F)CS1(=O)=O [Example 114, (R,Z)-5-amino-3-(5-(2-(5-chloropyridin-2-yl)-2-fluorovinyl)-2-fluorophenyl)-3,6,6-trimethyl-3,6-dihydro-2H-1,4-thiazine 1,1-dioxide] | 0.009 | 0.003 | 115 | 0.08
8 | CN1C(N)=N[C@](C)(c2cc(/C=C(\F)c3cc4cc(Cl)ccc4cn3)ccc2F)CS1(=O)=O [Example 260, (5R)-5-(5-((Z)-2-(6-chloro-3-isoquinolinyl)-2-fluoroethenyl)-2-fluorophenyl)-2,5-dimethyl-5,6-dihydro-2H-1,2,4-thiadiazin-3-amine 1,1-dioxide] | 0.552 | 0.112 | 72.5 | 4.18
9 | CC1(C)C(N)=N[C@](C)(c2cc(/C=C(\F)c3cnc(OCc4ccccc4)cn3)cnc2F)CS1(=O)=O [Example 209, (R,Z)-5-amino-3-(5-(2-(5-(benzyloxy)pyrazin-2-yl)-2-fluorovinyl)-2-fluoropyridin-3-yl)-3,6,6-trimethyl-3,6-dihydro-2H-1,4-thiazine 1,1-dioxide] | 0.124 | 0.311 | 46.5 | 2.52
10 | COc1cnc(/C(F)=C/c2ccc(F)c([C@]3(C)CS(=O)(=O)N(C)C(N)=N3)c2)cn1 [Example 241, (5R)-5-(2-fluoro-5-((Z)-2-fluoro-2-(5-methoxy-2-pyrazinyl)ethenyl)phenyl)-2,5-dimethyl-5,6-dihydro-2H-1,2,4-thiadiazin-3-amine 1,1-dioxide] | 0.107 | 0.075 | 91.3 | 0.168
11 | CC#C[C@@H](C)Oc1cnc(/C(F)=C/c2ccc(F)c([C@]3(C)CS(=O)(=O)C(C)(C)C(N)=N3)c2)cn1 (single isomer, unassigned) [Example 207] | 0.507 | 0.519 | 57.5 | 2.53

More lines, now with the values ahead:

Row | IC50 (BACE1 [1]) [µM] | IC50 (human recombinant BACE2) [µM] | IC50 (Cathepsin D (CatD)) [µM] | IC50 (BACE1 [2]) [µM] | SMILES
12 | 0.006 | 0.007 | 11 | 0.028 | CN1C(N)=N[C@](C)(c2cc(/C=C(\F)c3ccc(Br)cn3)ccc2F)CS1(=O)=O [Example 247, (R,Z)-3-amino-5-(5-(2-(5-bromopyridin-2-yl)-2-fluorovinyl)-2-fluorophenyl)-2,5-dimethyl-5,6-dihydro-2H-1,2,4-thiadiazine 1,1-dioxide]
13 | 0.034 | 0.008 | 375 | 0.067 | CN1C(N)=N[C@](C)(c2cc(/C=C(\F)c3ccc(F)cn3)ccc2F)CS1(=O)=O [Example 240, (5R)-5-(2-fluoro-5-((Z)-2-fluoro-2-(5-fluoro-2-pyridinyl)ethenyl)phenyl)-2,5-dimethyl-5,6-dihydro-2H-1,2,4-thiadiazin-3-amine 1,1-dioxide]
14 | 0.011 | 0.108 | 107 | 0.011 | COC[C@H](C)Oc1cnc(/C(F)=C/c2ccc(F)c([C@]3(C)CS(=O)(=O)N(C)C(N)=N3)c2)cn1 [Example 164, (R)-3-amino-5-(2-fluoro-5-((Z)-2-fluoro-2-(5-(((S)-1-methoxypropan-2-yl)oxy)pyrazin-2-yl)vinyl)phenyl)-2,5-dimethyl-5,6-dihydro-2H-1,2,4-thiadiazine 1,1-dioxide]
15 | 0.005 | 0.032 | > 133 | 0.017 | C[C@]1(c2cc(/C=C(\F)c3ccc(C#N)cn3)ccc2F)N=C(N)C2(CF)CC[C@@H]1S2(=O)=O (stereo in doubt) [Example 102, 6-((Z)-2-(3-((1S,2R,5R)-4-amino-5-(fluoromethyl)-2-methyl-8,8-dioxido-8-thia-3-azabicyclo[3.2.1]oct-3-en-2-yl)-4-fluorophenyl)-1-fluorovinyl)nicotinonitrile]
16 | 0.001 | 0.009 | 55.9 | 0.014 | Cc1cc(C#N)cnc1/C(F)=C/c1cc(F)c(F)c([C@]2(C)CS(=O)(=O)N(C)C(N)=N2)c1 [Example 275, (R,Z)-6-(2-(3-(3-amino-2,5-dimethyl-1,1-dioxido-5,6-dihydro-2H-1,2,4-thiadiazin-5-yl)-4,5-difluorophenyl)-1-fluorovinyl)-5-methylnicotinonitrile]
17 | 0.003 | 0.057 | 145 | 0.006 | C#CCOc1cnc(/C(F)=C/c2ccc(F)c([C@@]3(C)N=C(N)[C@@]4(CF)CC[C@@H]3S4(=O)=O)c2)cn1 [Example 108, (1R,4R,5S)-2-amino-4-(2-fluoro-5-((Z)-2-fluoro-2-(5-(prop-2-yn-1-yloxy)pyrazin-2-yl)vinyl)phenyl)-1-(fluoromethyl)-4-methyl-8-thia-3-azabicyclo[3.2.1]oct-2-ene 8,8-dioxide]
18 | 0.025 | 0.084 | 67.6 | 0.023 | COC(C)COc1cnc(/C(F)=C/c2ccc(F)c([C@]3(C)CS(=O)(=O)N(C)C(N)=N3)c2)cn1 (stereo partly drawn) [Example 172, (R)-3-amino-5-(2-fluoro-5-((Z)-2-fluoro-2-(5-(2-methoxypropoxy)pyrazin-2-yl)vinyl)phenyl)-2,5-dimethyl-5,6-dihydro-2H-1,2,4-thiadiazine 1,1-dioxide]
19 | 0.007 | 0.075 | 93.7 | 0.026 | CN1C(N)=N[C@](C)(c2cc(/C=C(\F)c3ccc(C#N)cn3)ccc2F)C(C)(C)S1(=O)=O [Example 180, (R,Z)-6-(2-(3-(3-amino-2,5,6,6-tetramethyl-1,1-dioxido-5,6-dihydro-2H-1,2,4-thiadiazin-5-yl)-4-fluorophenyl)-1-fluorovinyl)nicotinonitrile]
20 | 0.007 | 0.036 | 33.8 | 0.11 | CN1C(N)=N[C@](C)(c2cc(/C=C(\F)c3ccc(C#CC4CC4)cn3)ccc2F)CS1(=O)=O [Example 251, (R,Z)-3-amino-5-(5-(2-(5-(cyclopropylethynyl)pyridin-2-yl)-2-fluorovinyl)-2-fluorophenyl)-2,5-dimethyl-5,6-dihydro-2H-1,2,4-thiadiazine 1,1-dioxide]
21 | 0.001 | 0.034 | 109 | 0.002 | CC#CCOc1cnc(/C(F)=C/c2ccc(F)c([C@]3(C)CS(=O)(=O)C(C)(C)C(N)=N3)c2)cn1 [Example 154, (R,Z)-5-amino-3-(5-(2-(5-(but-2-yn-1-yloxy)pyrazin-2-yl)-2-fluorovinyl)-2-fluorophenyl)-3,6,6-trimethyl-3,6-dihydro-2H-1,4-thiazine 1,1-dioxide]
22 | 0.006 | 0.184 | 41.1 | 0.015 | CN1C(N)=N[C@](C)(c2cc(/C=C(\F)c3cnc(C#N)cn3)ccc2F)C2(CC2)S1(=O)=O [Example 147, (R,Z)-5-(2-(3-(6-amino-5,8-dimethyl-4,4-dioxido-4-thia-5,7-diazaspiro[2.5]oct-6-en-8-yl)-4-fluorophenyl)-1-fluorovinyl)pyrazine-2-carbonitrile]
